Laboratory results from publication PMC12703428, “Development of Granzyme A Turn‐ON Fluorescent Activity‐Based Probes” (Chembiochem, 2025).
Entries after “also recorded” stand apart in the source; their conditions may differ. Square brackets hold non-standard residues; d marks the D form. Ends that are not written are not given here. Oic = O=C(O)[C@@H]1C[C@@H]2CCCC[C@@H]2N1; Tic = O=C(O)[C@@H]1Cc2ccccc2CN1

What was measured:
[1] = target: T1, neutrophil elastase (NE) (Homo sapiens, UniProt P08246); experiment: Cross-reactivity labeling, neutrophil elastase; type: biochemical; settings: protease 100 nM, probe 100 nM, 2 h, 37 °C, in-gel fluorescence
T1 sequence (P08246 30-267): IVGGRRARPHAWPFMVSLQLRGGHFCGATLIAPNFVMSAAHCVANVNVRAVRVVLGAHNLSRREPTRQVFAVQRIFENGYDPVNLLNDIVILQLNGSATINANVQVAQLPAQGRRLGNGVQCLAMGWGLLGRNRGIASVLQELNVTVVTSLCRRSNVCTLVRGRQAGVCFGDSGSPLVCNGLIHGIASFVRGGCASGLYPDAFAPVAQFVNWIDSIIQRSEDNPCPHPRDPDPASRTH
Description: Protease (100 nM) HNE PR3 GzmK GzmA
Protease (100 nM) GzmA GzmK
Supplementary Figure 2. Cross-reactivity of probes. (A) Labeling of GzmA, GzmK, PR3, and HNE
(100 nM, 2 h, 37 °C) by 100 nM of 5 and 6. (B) Labeling of GzmA and GzmK (100 nM, 2 h, 37 °C) by
100 nM of 3 – 6. (C) Concentration-dependent labeling of GzmA and GzmK (100 nM, 2 h, 37 °C) by 5 and
6. Protein samples were analyzed by SDS-PAGE and in-gel fluorescence scanning for Cy5 signal.
Protein loading was confirmed by SYPRO Ruby staining. […]

[2] = target: T2, GzmA in intact NK‐92 cells (Homo sapiens, UniProt P12544); experiment: Labeling of GzmA in intact NK-92 cells (in-gel fluorescence); type: cell-based; settings: 2 h, 37 °C; for Labeling of GzmA in intact NK-92 cells: 1x10^6 NK-92 cells, lysis then in-gel fluorescence and GzmA western blot; for Cell permeability / cellular uptake: intact NK-92 cells, judged from labeling in intact cells
T2 construct: host or cells: NK-92
T2 sequence (P12544 29-262): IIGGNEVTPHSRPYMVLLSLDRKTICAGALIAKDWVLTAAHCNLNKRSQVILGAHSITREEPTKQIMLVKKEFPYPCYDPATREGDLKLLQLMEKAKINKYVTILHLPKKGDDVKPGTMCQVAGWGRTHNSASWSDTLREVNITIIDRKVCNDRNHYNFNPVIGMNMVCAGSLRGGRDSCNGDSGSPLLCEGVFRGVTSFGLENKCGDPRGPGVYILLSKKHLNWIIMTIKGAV
Description: Figure 4 Characterization of qABPs in native proteomes. A) Labeling of GzmA by 5 and 6 in lysates of various cell lines (1 h, 37 °C). B) Stability of 5 and 6 in buffer and cell media (11 h, 37 °C). The hydrolysis of probes was measured by monitoring the production of Cy5 fluorescence signal over time. […] C) Labeling of GzmA by probes 3 –6 in NK‐92 cells (2 h, 37 °C). D) Flow cytometry analysis of protein labeling in NK‐92 cells by 3 –5. […] E) Flow cytometry analysis of concentration‐dependent GzmA labeling in NK‐92 cells and S/N of 5 (5 μM, 2 h, 37 °C). […] F) Flow cytometry analysis of protein labeling by 5 in MDA‐MB‐231 cells co‐cultured with NK‐92 cells (see Supporting Information for conditions). […] TEXT PRINTED IN THE PICTURE: (E) qABP 5: S/N = 4 […]
Final reaction volume was 20 µL. […]
Conditions for Figure 4C: Various concentrations of probes 3-6 were incubated with 1x10^6 NK-92 cells for 2 h at 37 °C in a humidified incubator. Cells were centrifuged, washed with PBS (x2) and lysed with ~40 µL of ice-cold RIPA buffer. Lysates were collected, protein concentration was measured with PIERCE BCA protein assay and samples were analyzed with in-gel fluorescence and GzmA western blotting.
D. Flow cytometry analysis […]
Conditions for Figure 4F: In a 6-well cell culture plate, 5x10^5 MDA-MB-231 cells were seeded and allowed to attach overnight. After confirming cell attachment under the microscope, media were removed and fresh media containing 2x10^6 NK-92 cells (or NK-92 culture media alone for control) were added along with simultaneous addition of qABP 5 (5 µM). Cells were co-cultured for the indicated times at 37 °C under 5% CO2 in a humidified atmosphere. […]
E. Synthesis of compounds
1H, 13C and 31P spectra were acquired on a 500 MHz NMR in CDCl3 or CD3OD at 25 °C. The 1H chemical shifts are given in parts per million (δ) with respect to an internal tetramethylsilane (TMS, δ 0.00 ppm) standard. NMR data are reported in the following format: chemical shifts (multiplicity (s = singlet, d = doublet, t = triplet, m = multiplet), coupling constants [Hz], integration). LCMS data were acquired on Agilent 1200 series LC/MS or Shimadzu Prominence-i LC-2030s instrument, whereas HRMS data were obtained on an Agilent Q-TOF LC/MS/MS instrument. All compounds are >95% pure by HPLC analysis.

[3] = Stability of probes in buffer and cell media (hydrolysis by Cy5 signal); type: physicochemical; settings: cell culture media, 11 h incubation, 37 °C, read-out production of Cy5 fluorescence signal, mean ± SD n = 3
Description: Figure 4 Characterization of qABPs in native proteomes. A) Labeling of GzmA by 5 and 6 in lysates of various cell lines (1 h, 37 °C). B) Stability of 5 and 6 in buffer and cell media (11 h, 37 °C). The hydrolysis of probes was measured by monitoring the production of Cy5 fluorescence signal over time. […] C) Labeling of GzmA by probes 3 –6 in NK‐92 cells (2 h, 37 °C). D) Flow cytometry analysis of protein labeling in NK‐92 cells by 3 –5. […] E) Flow cytometry analysis of concentration‐dependent GzmA labeling in NK‐92 cells and S/N of 5 (5 μM, 2 h, 37 °C). […] F) Flow cytometry analysis of protein labeling by 5 in MDA‐MB‐231 cells co‐cultured with NK‐92 cells (see Supporting Information for conditions). […] TEXT PRINTED IN THE PICTURE: (E) qABP 5: S/N = 4

Substance | Labeling of NE (cross-reactivity) [1] | Labeling of GzmA in intact NK-92 cells [2] | Cell permeability / cellular uptake [2] | Hydrolysis of probe [3]
[Tic]G[Oic]R [compound 6] | Neither probe 5 nor 6 showed detectable labeling | poor labeling | limited cell permeability; also recorded: cell impermeable | ≈ 20%
IGNR [compound 5] | Neither probe 5 nor 6 showed detectable labeling | effectively labeled active GzmA in intact cells | excellent cellular uptake | –
